According to patent US20220064696A1, “TARGET ENGAGEMENT ASSAY FOR RAS PROTEINS” (Promega Corporation, priority 2020, published 2022):
Each block holds one compound with its values, some of them ahead of it.

Assays:
Assay type in all cases: binding
[1] = target: T1, KRAS2B(G12C) (Homo sapiens, UniProt P01116, G12C); assay: Target engagement at KRAS(G12C) homomultimeric complexes, NanoBiT oligomer configuration with SmBiT tag; conditions: LgBiT-KRAS2B(G12C) and SmBiT-KRAS2B(G12C)
T1 construct: expressed in transfected cells; host or cells: HEK293
Protocol: (§1) To explore this concept, the NanoBiT™ Technology was used to observe KRAS multimeric (e.g., dimer) complexes by NanoBiT tagging of KRAS, wherein BRET donor signal originates from an oligomeric KRAS. In a tissue culture flask, HEK293 cells per well were transfected with KRAS-NanoBiT fusions, LgBiT-KRAS2B(G12C) and SmBiT-KRAS2B(G12C) expressed from pNB3K or pNB4K plasmids along with pGEM-3Z carrier DNA (1:1:8 ratio by mass). Transfections were performed using 3:1 FuGENE HD:plasmid ratios. 24 hours post transfection, cells were treated with compound JRW-2220 and BI-2852.
(§2) After incubation in live cells, NanoBRET-TE substrate solution was added to a final concentration of 1×, and BRET was measured on a Glomax Discover plate reader.
The assay was also performed in digitonin permeabilized cells.

[2] = target: T1, KRAS2B(G12C); assay: KRAS(G12C) homomultimeric complexes, NanoBiT oligomer configuration with HiBiT tag; conditions: LgBiT-KRAS2B(G12C) and HiBiT-KRAS2B(G12C)
Protocol: as §1, with “form” for “observe”, “HiBiT-KRAS2B(G12C)” for “SmBiT-KRAS2B(G12C)”, “pFN38A” for “pNB4K”
as §2
The assay was also performed in digitonin permeabilized cells. Even after permeabilization, donor signal levels remained significant due to the use of the HiBiT tag, facilitating measurement of target engagement.

[3] = target: T2, KRAS2B(G12V) (Homo sapiens, UniProt P01116, G12V); assay: Target engagement at KRAS(G12V) homomultimeric complexes, NanoBiT oligomer configuration with SmBiT tag; conditions: live HEK293 cells, LgBiT-KRAS2B(G12V) and SmBiT-KRAS2B(G12V)
T2 construct: expressed in transfected cells; host or cells: HEK293
Protocol: as §1, with “LgBiT-KRAS2B(G12V)” for “LgBiT-KRAS2B(G12C)”, “SmBiT-KRAS2B(G12V)” for “SmBiT-KRAS2B(G12C)”, “JRW-2192” for “JRW-2220”
as §2

[4] = target: T3, KRAS2B(G13D) (Homo sapiens, UniProt P01116, G13D); assay: RAS NanoBiT target engagement assay in cells (LgBiT-RAS and SmBiT-RAS); conditions: HEK293 cells, tracer JRW-2310, FIG. 24
T3 construct: expressed in transfected cells; host or cells: HEK293
Protocol: (§3) To explore this concept, the NanoBiT™ Technology was used to form RAS multimeric (e.g., dimer) complexes by NanoBiT tagging of RAS, wherein BRET donor signal originates from an oligomeric RAS. In a tissue culture flask, HEK293 cells per well were transfected with RAS-NanoBiT fusions, LgBiT-RAS and SmBiT-RAS expressed from pNB3K or pNB4K plasmids along with pGEM-3Z carrier DNA (1:1:8 ratio by mass). Transfections were performed using 3:1 FuGENE HD:plasmid ratios. 24 hours post transfection, cells were treated with compound JRW-2219, JRW-2220, or JRW-2310, and BI-2852.

[5] = target: T1, KRAS2B(G12C); assay: as above; conditions: HEK293 cells, tracer JRW-2219 or JRW-2220, FIGS. 12-13
Protocol: as §3

[6] = target: T4, KRAS2B (Homo sapiens, UniProt P01116); assay: as above; conditions: HEK293 cells, tracer JRW-2219, FIGS. 10-11
T4 construct: expressed in transfected cells; host or cells: HEK293
Protocol: as §3

[7] = target: T5, KRAS2B(Q61L) (Homo sapiens, UniProt P01116, Q61L); assay: as above; conditions: HEK293 cells, tracer JRW-2310, FIG. 23
T5 construct: expressed in transfected cells; host or cells: HEK293
Protocol: as §3

[8] = target: T6, HRAS1 (Homo sapiens, UniProt P01112); assay: as above; conditions: HEK293 cells, LgBiT-HRAS1 and SmBiT-HRAS1, tracer JRW-2219 or JRW-2220, FIGS. 18-19
T6 construct: expressed in transfected cells; host or cells: HEK293
Protocol: as §3

[9] = target: T7, KRAS2B(G12D) (Homo sapiens, UniProt P01116, G12D); assay: as above; conditions: HEK293 cells, tracer JRW-2219 or JRW-2220, FIGS. 14-15
T7 construct: expressed in transfected cells; host or cells: HEK293
Protocol: as §3

[10] = target: T8, KRAS2B(Q61R) (Homo sapiens, UniProt P01116, Q61R); assay: as above; conditions: HEK293 cells, tracer JRW-2310, FIG. 21
T8 construct: expressed in transfected cells; host or cells: HEK293
Protocol: as §3

[11] = target: T2, KRAS2B(G12V); assay: as above; conditions: HEK293 cells, tracer JRW-2219 or JRW-2220, FIGS. 16-17
Protocol: as §3

[12] = target: T9, KRAS2B(Q61H) (Homo sapiens, UniProt P01116, Q61H); assay: as above; conditions: HEK293 cells, tracer JRW-2310, FIG. 22
T9 construct: expressed in transfected cells; host or cells: HEK293
Protocol: as §3

[13] = target: T10, KRAS^G12V (Homo sapiens, UniProt P01116, G12V); assay: NanoBiT BRET target engagement assay in cells, LgBiT and SmBiT fusions, tracer JRW-2111; conditions: HEK293 cells, tracer JRW-2111, FIGS. 2-3
T10 construct: expressed in transfected cells; host or cells: HEK293
Protocol: (§4) Luminescence was produced from either NanoLuc (Nluc) tagging of KRAS as the BRET donor, or by NanoBiT tagging of KRAS, wherein BRET donor signal originates from KRAS multimeric species in cells. In 96-well plates, 20,000 HEK293 cells per well were transfected with KRAS-Nluc fusions or KRAS-NanoBiT fusions expressed from pFN31K and pFN32K plasmids. Transfections were performed using 3:1 FuGENE HD:plasmid ratios. […] After incubation, NanoBRET-TE substrate solution was added to a final concentration of 1×, and BRET was measured on a Glomax Discover plate reader.

[14] = target: T11, KRAS (Homo sapiens, UniProt P01116); assay: as above; conditions: HEK293 cells, wild-type KRAS LgBiT/SmBiT fusions, tracer JRW-2111, FIGS. 2-3
T11 construct: expressed in transfected cells; host or cells: HEK293
Protocol: as §4

[15] = target: T12, KRAS^G12C (Homo sapiens, UniProt P01116, G12C); assay: as above; conditions: HEK293 cells, tracer JRW-2111, FIGS. 2-3
T12 construct: expressed in transfected cells; host or cells: HEK293
Protocol: as §4

[16] = target: T13, KRAS^G12D (Homo sapiens, UniProt P01116, G12D); assay: as above; conditions: HEK293 cells, tracer JRW-2111, FIGS. 2-3
T13 construct: expressed in transfected cells; host or cells: HEK293
Protocol: as §4

[17] = target: T10, KRAS^G12V; assay: NanoLuc fusion BRET target engagement assay in cells, tracer JRW-2025; conditions: HEK293 cells, tracer JRW-2025, FIG. 4
Protocol: as §4

[18] = target: T11, KRAS; assay: as above; conditions: HEK293 cells, wild-type KRAS-NanoLuc fusion, tracer JRW-2025, FIG. 4
Protocol: as §4

[19] = target: T12, KRAS^G12C; assay: as above; conditions: HEK293 cells, tracer JRW-2025, FIG. 4
Protocol: as §4

[20] = target: T13, KRAS^G12D; assay: as above; conditions: HEK293 cells, tracer JRW-2025, FIG. 4
Protocol: as §4

Compound: O=C(CCOCCOCCOCCOCCNC(=O)CCc1ccc2n1[B-](F)(F)[N+]1=C(c3ccc[nH]3)C=CC1=C2)NCCCn1cnc(Cn2ccc3ccc(CNCc4[nH]c5ccccc5c4C4NC(=O)c5ccc(O)cc54)cc32)c1 (stereo not shown) [JRW-2220, 1-(3-(5,5-difluoro-7-(1H-pyrrol-2-yl)-5H-5λ^4,6λ^4-dipyrrolo[1,2-c:2′,1′-f][1,3,2]diazaborinin-3-yl)propanamido)-N-(3-(4-((6-((((3-(6-hydroxy-3-oxoisoindolin-1-yl)-1H-indol-2-yl)methyl)amino)methyl)-1H-indol-1-yl)methyl)-1H-imidazol-1-yl)propyl)-3,6,9,12-tetraoxapentadecan-15-amide]
- BRET signal with increasing concentrations of the tracer ([1]; digitonin permeabilized HEK293 cells, FIG. 7): dose-dependent increase in the BRET signal
- BRET signal with increasing concentrations of the tracer ([1]; live HEK293 cells, FIG. 6): dose-dependent increase in the BRET signal
- BRET signal with increasing concentrations of the tracer ([2]; digitonin permeabilized HEK293 cells, FIG. 9): dose-dependent increase in the BRET signal
- BRET signal with increasing concentrations of the tracer ([2]; live HEK293 cells, FIG. 8): dose-dependent increase in the BRET signal

Compound: O=C(CCc1ccc2n1[B-](F)(F)[N+]1=C(c3ccc[nH]3)C=CC1=C2)NCCOCCOCCOCCOCCC(=O)NCc1cccc(Cn2ccc3ccc(CNCc4[nH]c5ccccc5c4C4NC(=O)c5ccc(O)cc54)cc32)c1 (stereo not shown) [JRW-2192, 1-(3-(5,5-difluoro-7-(1H-pyrrol-2-yl)-5H-5λ^4,6λ^4-dipyrrolo[1,2-c:2′,1′-f][1,3,2]diazaborinin-3-yl)propanamido)-N-(3-((6-((((3-(6-hydroxy-3-oxoisoindolin-1-yl)-1H-indol-2-yl)methyl)amino)methyl)-1H-indol-1-yl)methyl)benzyl)-3,6,9,12-tetraoxapentadecan-15-amide]
- BRET signal with increasing concentrations of the tracer ([3]; FIG. 5): dose-dependent increase in the BRET signal

- target engagement (BRET, competition with the RAS binding agent) [4]: target engagement was observed
- target engagement (BRET, competition with the RAS binding agent) [5]: target engagement was observed
- target engagement (BRET, competition with the RAS binding agent) [6]: target engagement was observed
- target engagement (BRET, competition with the RAS binding agent) [7]: target engagement was observed
- target engagement (BRET, competition with the RAS binding agent) [8]: target engagement was observed
- target engagement (BRET, competition with the RAS binding agent) [9]: target engagement was observed
- target engagement (BRET, competition with the RAS binding agent) [10]: target engagement was observed
- target engagement (BRET, competition with the RAS binding agent) [11]: target engagement was observed
- target engagement (BRET, competition with the RAS binding agent) [12]: target engagement was observed
- target engagement (competition with the KRAS binding agent, BRET) [13]: target engagement was observed
- target engagement (competition with the KRAS binding agent, BRET) [14]: target engagement was observed
- target engagement (competition with the KRAS binding agent, BRET) [15]: target engagement was observed
- target engagement (competition with the KRAS binding agent, BRET) [16]: target engagement was observed
- competition with the KRAS binding agent (BRET) [17]: competition was observed
- competition with the KRAS binding agent (BRET) [18]: competition was observed
- competition with the KRAS binding agent (BRET) [19]: competition was observed
- competition with the KRAS binding agent (BRET) [20]: competition was observed
Compound: Cn1cnc(Cn2ccc3ccc(CNCc4[nH]c5ccccc5c4[C@H]4NC(=O)c5ccc(O)cc54)cc32)c1 [BI-2852]
- inhibition of the BRET signal induced by the tracer (functional competition) ([1]; digitonin permeabilized HEK293 cells, tracer JRW-2220, FIG. 7): dose-dependent inhibition of the BRET signal
- inhibition of the BRET signal induced by the tracer (functional competition) ([1]; live HEK293 cells, tracer JRW-2220, FIG. 6): dose-dependent inhibition of the BRET signal
- inhibition of the BRET signal induced by the tracer (functional competition) ([3]; tracer JRW-2192, FIG. 5): dose-dependent inhibition of the BRET signal
- inhibition of the BRET signal induced by the tracer (functional competition) ([2]; digitonin permeabilized HEK293 cells, tracer JRW-2220, FIG. 9): dose-dependent inhibition of the BRET signal
- inhibition of the BRET signal induced by the tracer (functional competition) ([2]; live HEK293 cells, tracer JRW-2220, FIG. 8): dose-dependent inhibition of the BRET signal

Compound: C=CC(=O)N1CCN(c2ncnc3c(F)c(-c4c(O)cccc4F)c(Cl)cc23)CC1 [ARS-1620]
- competition with the KRAS binding agent (BRET) [17]: only observed for the KRAS^G12C mutant
- competition with the KRAS binding agent (BRET) [18]: only observed for the KRAS^G12C mutant
- competition with the KRAS binding agent (BRET) [19]: competition was only observed for the KRAS^G12C mutant
- competition with the KRAS binding agent (BRET) [20]: only observed for the KRAS^G12C mutant
